In patent publication US6514975B1, “Anti-inflammatory piperazinyl-benzyl-tetrazole derivatives and intermediates thereof” (Pfizer Inc, priority 1997, dated 2003):

How the values were obtained:
[1] = target: T1, delta opioid receptor, mouse vas deferens (MVD)(δ) (Mus musculus, UniProt P32300); assay: delta opioid agonist activity in mouse vas deferens (inhibition of electrically-induced contractions); conditions: isolated mouse vas deferens; inhibition of electrically-induced contractions in the presence of 300 nM mu-selective antagonist CTOP; measure of δ agonism
T1 construct: tissue Charles River; host or cells: isolated mouse vas deferens (DC1 strain)
Experimental: Opioid (delta, mu and kappa) activity was studied in two isolated tissues, the mouse vas deferens (MVD)(δ) and the guinea-pig myentric plexus with attached longitudinal muscle (GPMP)(μ and κ).
MVD (DC1 strain, Charles River, 25-35 g) were suspended in 15 ml organ baths containing Mg^++-free Krebs' buffer of the following composition (mM): NaCl, 119; KCl, 4.7; NaHCO3, 25; KH2PO4, 1.2; CaCl2, 2,5 and glucose, 11. The buffer was gassed with 95% O2 and 5% CO2. The tissues were suspended between platinum electrodes, attached to an isometric transducer with 500 mg tension and stimulated with 0.03 Hz pulses of 1-msec pulse-width at supramaxinal voltage. IC50 values were determined by the regression analysis of concentration-response curves for inhibition of electrically-induced contractions in the presence of 300 nM of the mu-selective antagonist CTOP. This test is a measure of δ agonism.
The delta opioid agonist activity of a number of compounds were determined in mouse vas deferens (as described above) with the following results: […]

T1 sequence (P32300 whole entry): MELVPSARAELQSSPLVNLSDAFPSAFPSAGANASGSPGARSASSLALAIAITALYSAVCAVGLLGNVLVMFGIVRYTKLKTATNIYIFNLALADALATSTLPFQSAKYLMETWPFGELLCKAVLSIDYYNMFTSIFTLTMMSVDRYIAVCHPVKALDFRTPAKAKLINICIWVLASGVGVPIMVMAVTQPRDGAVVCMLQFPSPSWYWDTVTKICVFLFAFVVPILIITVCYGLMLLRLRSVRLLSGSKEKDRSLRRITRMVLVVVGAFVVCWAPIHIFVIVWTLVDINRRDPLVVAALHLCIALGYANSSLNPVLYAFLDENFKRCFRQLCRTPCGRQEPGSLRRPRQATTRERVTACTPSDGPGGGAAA

SMILES | IC50 [1] [nM] | melting point [°C]
C=CCN1C[C@H](C)N([C@H](c2ccc(-c3nnn[nH]3)cc2)c2cccc(O)c2)C[C@H]1C [Example 1, (+)-5-{4-[(R)-α-(2(S),5(R)-4-Allyl-2,5-dimethyl-1-piperazinyl)-3-hydroxybenzyl]phenyl}-1H-tetrazole] | 0.2 | 
C=CCN1C[C@H](C)N([C@H](c2ccc(-c3nnn(CCCCC(=O)O)n3)cc2)c2cccc(O)c2)C[C@H]1C [Example 42, (+)-5-(5-{4-[(R)-α-(2(S),5(R)-4-Allyl-2,5-dimethyl-1-piperazinyl)-3-hydroxybenzyl]phenyl}-2-tetrazolyl)valeric Acid] | 0.316 | 
C=CCN1C[C@H](C)N([C@H](c2ccc(-c3nnn(CCOCC(=O)O)n3)cc2)c2cccc(O)c2)C[C@H]1C |  | 137 to 140
C[C@@H]1CN([C@H](c2ccc(-c3nnn[nH]3)cc2)c2cccc(O)c2)[C@@H](C)CN1Cc1ccccc1 [Example 4, (−)-5-{4-[(R)-α-(2(S),5(R)-4-benzyl-2,5-dimethyl-1-piperazinyl)-3-hydroxybenzyl]phenyl}-1H-tetrazole] | 0.0126 | 
